Experiments:
[1] = Observed clearance ratio and fraction reabsorbed (Freab, Freab′) calculated from CLR, fu,p and GFR; details: for Apparent Freab / Apparent Freab’: calculated from observed CLR, fu,p and GFR; for Freab: observed/apparent, 1 - CLR/(GFR x fu,p), GFR 120 mL/min
Method: The clearance ratio was calculated from clinical data using Eqs. […] For the remaining drugs the fraction reabsorbed (Freab) was calculated using Eq.
GFR values for healthy subjects may vary as a result of biological as well as inter-individual variation and also the method of measurement. […] Individual GFR values for subjects in clinical trials databases were generally not available.
In the proposed model, the nephron is represented as five compartments, namely the glomerulus and four tubular regions, as depicted in Fig. 1. The tubular compartments in the model, listed in anatomical order starting from the glomerulus are: the proximal tubule (PT), the loop of Henle (LoH), the distal tubule (DT) and the collecting duct (CD). […] The relationship between Freab′ and Freab is shown in Eq. (11). The predicted overall Freab′ was calculated from the predicted Freab′ in each (i) tubular region (Freab,i′), as shown in Eq. (12).

[2] = LogD6.5 estimated from LogD7.4 and pKa; details: pH 6.5; for logD: octanol/buffer
From the text: (§1) The pKa values associated with ionisable centres identified within a given drug were used to calculate the fraction of drug ionised at pH 6.5. Drugs were then classified into groups as follows: drugs with > 50% unionised at pH 6.5 were classified as “Neutral”; drugs with > 50% ionised as mono −/di −/tri-protic acids or bases were classified as “Acid” or “Base”, respectively; “Zwitterions” were classified as drugs with > 50% ionised, with the major ionised species having no net charge; all other drugs were classified as amphoteric. […] LogD6.5 for neutral, amphoteric and zwitterion drugs were assumed to be equal to LogD7.4.

physchem [3] = details: pH 7.4
From the text: as §1

[4] = cited from earlier work; for CLR: healthy adult subjects, overall weighted mean of literature values, absolute (not normalised), ref Supplementary Results Table S2.1; for Overall weighted mean CLR: healthy subjects, plasma and urine data from same subjects, normalised for subject weight and body surface area where necessary; for Overall weighted mean CLR / CLR Observed: ref Table S2.1; for CLR Observed: overall weighted mean of values obtained from a literature survey
[5] = Caco-2 apparent permeability (Papp), apical to basolateral, pH 6.5-7.4 gradient, efflux inhibitor cocktail; details: human, Caco-2, pH 6.5
Method: The assay was performed using the apical to basolateral pH gradient format of pH 6.5 to pH 7.4. […] The efflux transporter inhibitor cocktail was used to minimise the effect of efflux transporters expressed in Caco-2 cells (e.g. P-glycoprotein, BCRP and MRP2) on the estimate of apical to basolateral Papp of substrates for such transporters.

[6] = Ionisation classification at pH 6.5 from pKa; assay type: physicochemical; details: predominant species (> 50%) at pH 6.5 from measured or calculated pKa
From the text: as §1

physchem [7] = assay: physchem
From the text: as §1

[8] = pKa (acid), measured, potentiometric
[9] = pKa (base), measured, potentiometric

Compound	Apparent Freab [1]	Apparent Freab’ [1]	Freab [1]	logD [2]	logD (physchem [3])	CLR [4] [mL/min]	Overall weighted mean CLR [4] [mL/min]	CLR Observed [4] [mL/min]	Papp A→B at 2 h [5] [×10⁻⁶ cm/s]	Ionisation at pH 6.5 [6]	logD (physchem [3]; octanol/buffer)	pKa (physchem [7])	pKa (physchem [7]; [8])	pKa (physchem [7]; [9])	LogD6.5 [2]	LogD7.4 (physchem [3])
CCCN1CCCC[C@H]1C(=O)Nc1c(C)cccc1C [Ropivacaine]	0.547	0.552	0.55	1.27	2.1	2.73	2.7	2.73	32.3	Base	–	–	–	–	–	–
CN(C)CCC=C1c2ccccc2COc2ccccc21 [Doxepin]	0.638	0.643	0.64	1.41	–	9.75	9.8	9.75	36.5	Base	2.23	–	–	–	–	–
COCCc1ccc(OCC(O)CNC(C)C)cc1 (stereo not drawn) [Metoprolol]	-0.050	-0.050	–	–	–	110	109.6	109.58	17	Base	–	9.4	–	–	–	–
C[C@H]1C[C@H]2[C@@H]3CCC4=CC(=O)C=C[C@]4(C)[C@@]3(F)[C@@H](O)C[C@]2(C)[C@@]1(O)C(=O)CO [Betamethasone]	0.780	0.787	0.78	1.99	–	9.50	9.5	9.50	–	Neutral	1.99	–	–	–	–	–
N=C(N)c1ccc(CNC(=O)[C@@H]2CCN2C(=O)[C@H](NCC(=O)O)C2CCCCC2)cc1 [Melagatran]	-0.021	-0.021	–	–	–	114	113.7	113.74	0.145	Amphoteric	–	–	2.12	–	–	–
Nc1ccc(S(=O)(=O)c2ccc(N)cc2)cc1 [Dapsone]	–	–	–	0.85	–	5.50	5.5	5.50	49.7	Neutral	0.85	–	–	–	–	–
O=C(NCCN1CCOCC1)c1ccc(Cl)cc1 [Moclobemide]	0.943	0.951	0.94	1.34	–	3.42	3.4	3.42	64.4	Base	1.6	–	–	–	–	–
CN1CCN(c2cc3c(cc2F)c(=O)c(C(=O)O)cn3-c2ccc(F)cc2)CC1 [Difloxacin]	0.939	0.947	0.94	–	–	4.54	4.5	4.54	74.6	Zwitterion	–	–	5.81	7.39	–	–
CC1(C)O[C@@H]2[C@@H](CO[C@@]3(COS(N)(=O)=O)OC(C)(C)O[C@@H]23)O1 [Topiramate]	0.856	0.863	0.86	0.61	–	15.1	15.1	15.05	46.2	Neutral	0.6	–	–	–	–	–
Cc1c(F)c(N2CCNC(C)C2)cc2c1c(=O)c(C(=O)O)cn2C1CC1 (stereo not drawn) [Grepafloxacin]	0.350	0.353	0.35	0.5	–	47.6	47.6	47.60	110	Zwitterion	0.5	–	–	–	–	–
COc1ccc(C(CN(C)C)C2(O)CCCCC2)cc1 (stereo not drawn) [Venlafaxine]	0.088	0.089	0.09	0.05	0.95	80.0	80.0	80.00	27.6	Base	–	–	–	–	–	–
CN(C)CCCN1c2ccccc2CCc2ccccc21 [Imipramine]	–	–	–	–	–	–	–	–	–	–	–	–	–	9.17	–	–
C[C@]12C=CC(=O)C=C1CC[C@@H]1[C@@H]2C(=O)C[C@@]2(C)[C@H]1CC[C@]2(O)C(=O)CO [Prednisone]	0.299	0.301	0.30	1.25	–	37.9	37.9	37.87	37.3	Neutral	1.25	–	–	–	–	–
Cn1c(=O)c2[nH]cnc2n(C)c1=O [Theophylline]	–	–	–	–	–	5.50	5.5	5.50	–	Neutral	–	–	–	–	− 0.06	− 0.09
CCN(CC)CCCN(c1ccccc1)C1Cc2ccccc2C1 [Aprindine]	0.785	0.791	0.78	1.53	–	1.28	1.3	1.28	31.8	Base	2.5	–	–	–	–	–

Source: publication PMC5074076, “Novel minimal physiologically-based model for the prediction of passive tubular reabsorption and renal excretion clearance” (European Journal of Pharmaceutical Sciences, 2016)
